Experimental data: US4345938A, “Herbicidal 2-haloacetanilides” (Monsanto Company, priority 1980, dated 1982)
Like-named read-outs stand apart in the source and are kept apart here.

What was measured:
Assay type in all cases: in vivo
Eleocharis kuroguwai = assay: Field transplant rice test, applied 0 DAT, EK; conditions: 0 h, read-out: Percent Inhibition, EK; for inhibition at 375 g/ha: 0.375 Kg/Ha; for inhibition at 750 g/ha: 0.75 Kg/Ha; for inhibition at 1500 g/ha: 1.5 Kg/Ha; for inhibition at 3000 g/ha: 3.0 Kg/Ha
Procedure: (§1) The test data in Table III for all compounds was obtained under identical test conditions. The weeds used in the tests herein have the following abbreviations in the tables: Echinochloa crus-galli (EC), Monochloria vaginalis (MV), Cyperus Serotinus (CS), Eleocharis Kuroguwai (EK) and Sagittaria trifolia (ST).
(§2) In further comparative tests, a preferred compound of this invention (Example 1) was tested in the field with prior art Compounds A-D. These tests were conducted under conditions reflecting herbicide application times generally favorable to all herbicides in the test. The timing of application of herbicides to transplant rice is very important, whether, as in some instances, prior to transplanting the rice; in other instances, at the time of transplanting or else after transplanting. Application times are conventionally referred to as "days before transplant" (DBT) or "days after transplant" ("DAT"). The field test data in Table IV was obtained from a test in which the herbicides were applied at the time of transplant, i.e., "0 DAT", with observations being made weekly up to six weeks after transplant ("WAT") beginning at two weeks after transplant; for illustrative and representative purposes, only the early, middle and late period observations, i.e., 2 WAT, 4 WAT and 6 WAT, are shown in Table IV. The data in Table IV is for rates of application common to all herbicides in the test, i.e., from 3.0 kg/ha (2.67 lb/A) down to 0.375 kg/ha (0.34 lb/A). All herbicides were applied at their actual or expected use rates, i.e., as granules containing 2.5% by weight herbicide for the compound of Example 1, Compounds B, C and D and 5.0% by weight for Compound A.

Rice = assay: Field transplant rice test, applied 9 DAT, rice injury; conditions: Oryza sativa, 216 h, read-out: Percent Inhibition, Rice; for inhibition at 375 g/ha: 0.375 Kg/Ha; for inhibition at 750 g/ha: 0.75 Kg/Ha; for inhibition at 1500 g/ha: 1.5 Kg/Ha; for inhibition at 3000 g/ha: 3.0 Kg/Ha
Procedure: as §2
(§3) In Table V are presented field data showing the relative performance of the compound of Example 1 and Compounds A-D applied 9 DAT, with observations being made weekly from 3 WAT to 7 WAT; again, for illustrative and representative purposes, only the early, middle and late period observations are reported in Table V, the herbicide rates and concentrations of active ingredients the same as is shown in Table IV.

Echinochloa crus-galli = assay: Field transplant rice test, applied 9 DAT, EC; conditions: for inhibition at 375 g/ha / inhibition at 750 g/ha / inhibition at 1500 g/ha / inhibition at 3000 g/ha: Echinochloa crus-galli, 216 h, read-out: Percent Inhibition, EC; for inhibition at 375 g/ha: 0.375 Kg/Ha; for inhibition at 750 g/ha: 0.75 Kg/Ha; for inhibition at 1500 g/ha: 1.5 Kg/Ha; for inhibition at 3000 g/ha: 3.0 Kg/Ha
Source text: (§4) In the discussion of data below, occasional reference is made to herbicide application rates symbolized as "GR15 " and "GR85 "; these rates are given in kilograms per hectare (kg/ha) which are convertible into pounds per acre (lbs/A) by dividing the kg/ha rate by 1.12.
(§5) A further guide to the effectiveness of a chemical as a selective herbicide is the "selectivity factor" ("SF") for a herbicide in given crops and weeds. The selectivity factor is a measure of the relative degree of crop safety and weed injury and is expressed in terms of the GR15 /GR85 ratio, i.e., the GR15 rate for the crop divided by the GR85 rate for the weed, both rates in kg/ha (lb/A.)
as §1, §2, §3

Monochoria vaginalis = assay: Field transplant rice test, applied 9 DAT, MV; conditions: for inhibition at 375 g/ha / inhibition at 750 g/ha / inhibition at 1500 g/ha / inhibition at 3000 g/ha: Pontederia vaginalis, 216 h, read-out: Percent Inhibition, MV; for inhibition at 375 g/ha: 0.375 Kg/Ha; for inhibition at 750 g/ha: 0.75 Kg/Ha; for inhibition at 1500 g/ha: 1.5 Kg/Ha; for inhibition at 3000 g/ha: 3.0 Kg/Ha
Source text: as §4, §5, §1, §2, §3

Cyperus serotinus = assay: Field transplant rice test, applied 9 DAT, CS; conditions: for inhibition at 375 g/ha / inhibition at 750 g/ha / inhibition at 1500 g/ha / inhibition at 3000 g/ha: Cyperus serotinus, 216 h, read-out: Percent Inhibition, CS; for inhibition at 375 g/ha: 0.375 Kg/Ha; for inhibition at 750 g/ha: 0.75 Kg/Ha; for inhibition at 1500 g/ha: 1.5 Kg/Ha; for inhibition at 3000 g/ha: 3.0 Kg/Ha
Source text: as §4, §5, §1, §2, §3

Molecule `CCCCOCN(C(=O)CCl)c1c(C)cccc1C(C)(C)C` [Compound C, 2'-methyl-6'-tert-butyl-N-(n-butoxymethyl)-2-chloroacetanilide] has an inhibition at 375 g/ha (Eleocharis kuroguwai; 2 WAT) of 63%, an inhibition at 375 g/ha (Eleocharis kuroguwai; 4 WAT) of 52% and an inhibition at 375 g/ha (Eleocharis kuroguwai; 6 WAT) of 18%. For the same molecule, the inhibition at 750 g/ha (Eleocharis kuroguwai; 2 WAT) was 68%, the inhibition at 750 g/ha (Eleocharis kuroguwai; 4 WAT) was 58% and the inhibition at 750 g/ha (Eleocharis kuroguwai; 6 WAT) was 18%. The inhibition at 1500 g/ha (Eleocharis kuroguwai; 2 WAT) was 85%, the inhibition at 1500 g/ha (Eleocharis kuroguwai; 4 WAT) was 93% and the inhibition at 1500 g/ha (Eleocharis kuroguwai; 6 WAT) was 67%. The inhibition at 3000 g/ha (Eleocharis kuroguwai; 2 WAT) was 82%, the inhibition at 3000 g/ha (Eleocharis kuroguwai; 4 WAT) was 90% and the inhibition at 3000 g/ha (Eleocharis kuroguwai; 6 WAT) was 80%. It also gave an inhibition at 375 g/ha (Rice; 3 WAT) of 17%, an inhibition at 375 g/ha (Rice; 5 WAT) of 8% and an inhibition at 375 g/ha (Rice; 7 WAT) of 10%. For the same molecule, the inhibition at 750 g/ha (Rice; 3 WAT) was 10%, the inhibition at 750 g/ha (Rice; 5 WAT) was 7% and the inhibition at 750 g/ha (Rice; 7 WAT) was 8%. The inhibition at 1500 g/ha (Rice; 3 WAT) was 18%, the inhibition at 1500 g/ha (Rice; 5 WAT) was 15% and the inhibition at 1500 g/ha (Rice; 7 WAT) was 13%. The inhibition at 3000 g/ha (Rice; 3 WAT) was 10%, the inhibition at 3000 g/ha (Rice; 5 WAT) was 5% and the inhibition at 3000 g/ha (Rice; 7 WAT) was 8%. It also gave an inhibition at 375 g/ha (Echinochloa crus-galli; 3 WAT) of 82%, an inhibition at 375 g/ha (Echinochloa crus-galli; 5 WAT) of 78% and an inhibition at 375 g/ha (Echinochloa crus-galli; 7 WAT) of 82%. The inhibition at 750 g/ha (Echinochloa crus-galli; 3 WAT) was 92%, the inhibition at 750 g/ha (Echinochloa crus-galli; 5 WAT) was 95% and the inhibition at 750 g/ha (Echinochloa crus-galli; 7 WAT) was 97%. It also gave an inhibition at 1500 g/ha (Echinochloa crus-galli; 3 WAT) of 98%, an inhibition at 1500 g/ha (Echinochloa crus-galli; 5 WAT) of 100% and an inhibition at 1500 g/ha (Echinochloa crus-galli; 7 WAT) of 100%. It also gave an inhibition at 3000 g/ha (Echinochloa crus-galli; 3 WAT) of 98%, an inhibition at 3000 g/ha (Echinochloa crus-galli; 5 WAT) of 100% and an inhibition at 3000 g/ha (Echinochloa crus-galli; 7 WAT) of 100%. For the same molecule, the “selectivity factor (GR15/GR85), EC in transplant rice” value (Echinochloa crus-galli; between 3 WAT and 7 WAT) was 4, the inhibition at 375 g/ha (Monochoria vaginalis; 3 WAT) was 97% and the inhibition at 375 g/ha (Monochoria vaginalis; 5 WAT) was 98%. The inhibition at 375 g/ha (Monochoria vaginalis; 7 WAT) was 60%, the inhibition at 750 g/ha (Monochoria vaginalis; 3 WAT) was 100% and the inhibition at 750 g/ha (Monochoria vaginalis; 5 WAT) was 100%. It also gave an inhibition at 750 g/ha (Monochoria vaginalis; 7 WAT) of 100%, an inhibition at 1500 g/ha (Monochoria vaginalis; 3 WAT) of 100% and an inhibition at 1500 g/ha (Monochoria vaginalis; 5 WAT) of 100%. It also gave an inhibition at 1500 g/ha (Monochoria vaginalis; 7 WAT) of 100%, an inhibition at 3000 g/ha (Monochoria vaginalis; 3 WAT) of 100% and an inhibition at 3000 g/ha (Monochoria vaginalis; 5 WAT) of 100%. The inhibition at 3000 g/ha (Monochoria vaginalis; 7 WAT) was 100%, the “selectivity factor (GR15/GR85), MV in transplant rice” value (Monochoria vaginalis; between 3 WAT and 7 WAT) was 8 and the inhibition at 375 g/ha (Cyperus serotinus; 3 WAT) was 58%. It also gave an inhibition at 375 g/ha (Cyperus serotinus; 5 WAT) of 60%, an inhibition at 375 g/ha (Cyperus serotinus; 7 WAT) of 43% and an inhibition at 750 g/ha (Cyperus serotinus; 3 WAT) of 93%. The inhibition at 750 g/ha (Cyperus serotinus; 5 WAT) was 93%, the inhibition at 750 g/ha (Cyperus serotinus; 7 WAT) was 82% and the inhibition at 1500 g/ha (Cyperus serotinus; 3 WAT) was 62%. It also gave an inhibition at 1500 g/ha (Cyperus serotinus; 5 WAT) of 87%, an inhibition at 1500 g/ha (Cyperus serotinus; 7 WAT) of 83% and an inhibition at 3000 g/ha (Cyperus serotinus; 3 WAT) of 95%. The inhibition at 3000 g/ha (Cyperus serotinus; 5 WAT) was 100%, the inhibition at 3000 g/ha (Cyperus serotinus; 7 WAT) was 100% and the “selectivity factor (GR15/GR85), CS in transplant rice” value (Cyperus serotinus; between 3 WAT and 7 WAT) was 4.
